Assay results from PubChem BioAssay AID2060507 (Molecular Pharmacology Branch, DTP, NCI, 2025).
“And” between values parts separate entries of the source, which are not always exact repeats. Equal entries are not always repeated. One block for each compound: values may come before it.

System: 519858-162-T-J1-PDC complex spheroid viability
Test: Anticancer human tumor 519858-162-T-J1-PDC patient-derived colon adenocarcinoma cell line growth inhibition [GQUAD]
Details: for viability, T/C: stronger effect = lower value
From the text: DNA G-quadruplex Stabilizer Agents in Combinations in Complex Spheroids
A high-throughput screen of multi-cell type tumor spheroids was designed to identify active combinations of DNA G-quadruplex stabilizer agents and targeted small molecules. Complex spheroids include a stromal component modeled by human endothelial cells (HUVEC) and fibroblasts modeled by human mesenchymal stem cells (MSCs). The concentration ranges selected for each drug and investigational agent were based upon clinically achievable concentrations if the clinical Cmax of the agent was known.
Compounds. The drugs and investigational agents: pidnarulex (CX-5461; NSC782164), APTO-253 (NSC789042), BRACO-19 (NSC847499), peposertib (NSC802822), ceralasertib (NSC780249), elimusertib (NSC800525), camonsertib (NSC841442), AZD-1390 (NSC803789), olaparib (NSC753686), talazoparib (NSC767125), ART-558 (NSC835418), sotorasib (NSC818433), MRTX-1133 (NSC836407), SN-38 (NSC673596), topotecan (NSC609699), etoposide (NSC141540), doxorubicin (NSC123127), gemcitabine (NSC613327), 5-fluorouracil (NSC19893), paclitaxel (NSC125973), vemurafenib (NSC761431), panobinostat (NSC761190), R-306465 (JNJ-16241199; NSC773264), adavosertib (NSC754352), TP-3654 (NSC805149), carboplatin (NSC241240), KSQ-4279 (NSC840948), and staurosporine (NSC755774) were obtained from the National Cancer Institute (NCI) Developmental Therapeutics Program Chemical Repository (34). The FDA-approved anticancer drug set is available from the NCI Developmental Therapeutics Program. […] The stock solutions were prepared in dimethyl sulfoxide (DMSO, Sigma-Aldrich, St. Louis, MO, cat. D2650) at 800-fold the tested concentration and stored at -70 degrees C prior to their use. All drugs and investigational agents were tested over a range starting from a high concentration at or near the clinical Cmax and decreasing in half-log increments. If the clinical Cmax for an agent had not been determined, the highest concentration tested was 10 microM.
2.3 Cell Culture. All cells were maintained in an incubator at 37 degrees C and 5% CO2 with 95% humidity. The PDC lines were cultured according to standard operating procedures established by the NCI PDMR. All PDCs were thawed and cultured in Matrigel-coated flasks prepared with a working solution of 1X Ham's F-12 nutrient mix, without supplementation (Invitrogen, cat. 11765054), 100 U/mL penicillin-streptomycin (Invitrogen, cat. 15140122), and 2.5% Matrigel (Corning Inc., cat. 354248) for the first three passages. The 857933-349-R-J2-PDC line was cultured in 6C/Colon 1B media, which includes advanced DMEM/F-12 (Thermo Fisher Scientific, cat. 12634028), 10 mM HEPES (Thermo Fisher Scientific, cat. 15630080), 1X GlutaMAX supplement (Thermo Fisher Scientific, cat. 35050061), 0.1 mg/mL primocin (InvivoGen, cat. ant-pm-2), 10% defined fetal bovine serum, heat inactivated (HyClone Laboratories Inc., cat. SH30070.03HI), 50% L-WRN conditioned media (ATCC, cat. CRL-3276), 1.25 mM N-Acetyl-L-cysteine (Sigma-Aldrich, cat. A9165), 10 mM nicotinamide (Sigma-Aldrich, cat. N0636), 1X B-27 supplement (Thermo Fisher Scientific, cat. 17504044), 1X N-2 supplement (Thermo Fisher Scientific, cat. 17502048), 10 microM Y-27632 dihydrochloride (Tocris Bioscience, cat. 1254), and 50 ng/mL human EGF recombinant protein (Thermo Fisher Scientific, cat. PHG0311). The 485176-168-R4-J1-PDC line was cultured in Panc media, which includes all 6C/Colon 1B media components plus 100 ng/mL human FGF-10 (Thermo Fisher Scientific, cat. 100-26), 500 nM SB-431542 (Selleckchem, cat. S1067), and gastrin (Tocris, cat. 3006).
[…]
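Further: spheroids exposed to compounds for 7 days.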
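Wherever viability, T/C is given: 100% = DMSO vehicle control viability.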

- IC50 (curve of first compound, second compound 0.0316 µM): > 316 nM
- IC50 (curve of first compound, second compound 0.1 µM): > 316 nM
- IC50 (curve of first compound, second compound 0.316 µM): > 316 nM
- IC50 (curve of first compound, second compound 1 µM): > 316 nM
- IC50 (curve of first compound, second compound 3.16 µM): < 0.999 nM
- IC50 (curve of first compound, second compound 10 µM): < 0.999 nM
SMILES: Cn1ncnc1[C@H]1c2n[nH]c(=O)c3cc(F)cc(c23)N[C@@H]1c1ccc(F)cc1 + Cc1cnc(CNC(=O)c2c(=O)c3ccc(N4CCCN(C)CC4)nc3n3c2sc2ccccc23)cn1
- viability, T/C (second compound 0.0316 µM, first compound 0.000999 µM): 96.5%
- viability, T/C (second compound 0.0316 µM, first compound 0.00316 µM): 116%
- viability, T/C (second compound 0.0316 µM, first compound 0.00999 µM): 101%
- viability, T/C (second compound 0.0316 µM, first compound 0.0316 µM): 72.1%
- viability, T/C (second compound 0.0316 µM, first compound 0.0999 µM): 70.2%
- viability, T/C (second compound 0.0316 µM, first compound 0.316 µM): 57.8%
- viability, T/C (second compound 0.1 µM, first compound 0.000999 µM): 60.1%
- viability, T/C (second compound 0.1 µM, first compound 0.00316 µM): 92.9%
- viability, T/C (second compound 0.1 µM, first compound 0.00999 µM): 79.5%
- viability, T/C (second compound 0.1 µM, first compound 0.0316 µM): 79.5%
- viability, T/C (second compound 0.1 µM, first compound 0.0999 µM): 56.8%
- viability, T/C (second compound 0.1 µM, first compound 0.316 µM): 65.2%
- viability, T/C (second compound 0.316 µM, first compound 0.000999 µM): 85.3%
- viability, T/C (second compound 0.316 µM, first compound 0.00316 µM): 81.8%
- viability, T/C (second compound 0.316 µM, first compound 0.00999 µM): 65.9%
- viability, T/C (second compound 0.316 µM, first compound 0.0316 µM): 72%
- viability, T/C (second compound 0.316 µM, first compound 0.0999 µM): 61.5%
- viability, T/C (second compound 0.316 µM, first compound 0.316 µM): 58.9%
- viability, T/C (second compound 1 µM, first compound 0.000999 µM): 85.2%
- viability, T/C (second compound 1 µM, first compound 0.00316 µM): 72.3%
- viability, T/C (second compound 1 µM, first compound 0.00999 µM): 60.9%
- viability, T/C (second compound 1 µM, first compound 0.0316 µM): 73.3%
- viability, T/C (second compound 1 µM, first compound 0.0999 µM): 69.9%
- viability, T/C (second compound 1 µM, first compound 0.316 µM): 72.7%
- viability, T/C (second compound 3.16 µM, first compound 0.000999 µM): 47.3%
- viability, T/C (second compound 3.16 µM, first compound 0.00316 µM): 48.7%
- viability, T/C (second compound 3.16 µM, first compound 0.00999 µM): 50.3%
- viability, T/C (second compound 3.16 µM, first compound 0.0316 µM): 38.7%
- viability, T/C (second compound 3.16 µM, first compound 0.0999 µM): 43.1%
- viability, T/C (second compound 3.16 µM, first compound 0.316 µM): 52.3%
- viability, T/C (second compound 10 µM, first compound 0.000999 µM): 26.9%
- viability, T/C (second compound 10 µM, first compound 0.00316 µM): 54%
- viability, T/C (second compound 10 µM, first compound 0.00999 µM): 44.4%
- viability, T/C (second compound 10 µM, first compound 0.0316 µM): 50.4%
- viability, T/C (second compound 10 µM, first compound 0.0999 µM): 49.1%
- viability, T/C (second compound 10 µM, first compound 0.316 µM): 72%

- IC50 (curve of compound): 4780 nM and 2430 nM
SMILES: CC1COCCN1c1cc(-c2ccnn2C)c2ccnc(-c3ccn[nH]3)c2n1 (centres undefined)
- viability, T/C (compound 0.0316 µM): 103% and 94%
- viability, T/C (compound 0.1 µM): 93.7% and 82.9%
- viability, T/C (compound 0.316 µM): 96.7% and 65%
- viability, T/C (compound 1 µM): 117% and 98.3%
- viability, T/C (compound 3.16 µM): 58.8% and 39.7%
- viability, T/C (compound 10 µM): 34.3% and 26.3%
